In patent US20220033407A1, “N-(pyridin-2-ylsulfonyl)cyclopropanecarboxamide Derivatives and their Use in the Treatment of Disease” (NOVARTIS AG, priority 2018, published 2022):

What was measured:
[1] = molecular target: T1, delF508-CFTR-HRP (Homo sapiens, UniProt P13569, DEL508-508); experiment: Measurement of delF508-CFTR-HRP surface expression in CFBE41o- cells (HRP luminescence); assay type: cell-based; conditions: for Emax: CFBE41o-, read-out: DelF508-CFTR-HRP Amax %; for EC50: mean of at least two replicates;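 for DelF508-CFTR-HRP Amax %: percent efficacy relative to a reference CFTR corrector compound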
T1 construct: expressed in transfected cells
T1 sequence (P13569 with tags, fused parts or gaps DEL508-508): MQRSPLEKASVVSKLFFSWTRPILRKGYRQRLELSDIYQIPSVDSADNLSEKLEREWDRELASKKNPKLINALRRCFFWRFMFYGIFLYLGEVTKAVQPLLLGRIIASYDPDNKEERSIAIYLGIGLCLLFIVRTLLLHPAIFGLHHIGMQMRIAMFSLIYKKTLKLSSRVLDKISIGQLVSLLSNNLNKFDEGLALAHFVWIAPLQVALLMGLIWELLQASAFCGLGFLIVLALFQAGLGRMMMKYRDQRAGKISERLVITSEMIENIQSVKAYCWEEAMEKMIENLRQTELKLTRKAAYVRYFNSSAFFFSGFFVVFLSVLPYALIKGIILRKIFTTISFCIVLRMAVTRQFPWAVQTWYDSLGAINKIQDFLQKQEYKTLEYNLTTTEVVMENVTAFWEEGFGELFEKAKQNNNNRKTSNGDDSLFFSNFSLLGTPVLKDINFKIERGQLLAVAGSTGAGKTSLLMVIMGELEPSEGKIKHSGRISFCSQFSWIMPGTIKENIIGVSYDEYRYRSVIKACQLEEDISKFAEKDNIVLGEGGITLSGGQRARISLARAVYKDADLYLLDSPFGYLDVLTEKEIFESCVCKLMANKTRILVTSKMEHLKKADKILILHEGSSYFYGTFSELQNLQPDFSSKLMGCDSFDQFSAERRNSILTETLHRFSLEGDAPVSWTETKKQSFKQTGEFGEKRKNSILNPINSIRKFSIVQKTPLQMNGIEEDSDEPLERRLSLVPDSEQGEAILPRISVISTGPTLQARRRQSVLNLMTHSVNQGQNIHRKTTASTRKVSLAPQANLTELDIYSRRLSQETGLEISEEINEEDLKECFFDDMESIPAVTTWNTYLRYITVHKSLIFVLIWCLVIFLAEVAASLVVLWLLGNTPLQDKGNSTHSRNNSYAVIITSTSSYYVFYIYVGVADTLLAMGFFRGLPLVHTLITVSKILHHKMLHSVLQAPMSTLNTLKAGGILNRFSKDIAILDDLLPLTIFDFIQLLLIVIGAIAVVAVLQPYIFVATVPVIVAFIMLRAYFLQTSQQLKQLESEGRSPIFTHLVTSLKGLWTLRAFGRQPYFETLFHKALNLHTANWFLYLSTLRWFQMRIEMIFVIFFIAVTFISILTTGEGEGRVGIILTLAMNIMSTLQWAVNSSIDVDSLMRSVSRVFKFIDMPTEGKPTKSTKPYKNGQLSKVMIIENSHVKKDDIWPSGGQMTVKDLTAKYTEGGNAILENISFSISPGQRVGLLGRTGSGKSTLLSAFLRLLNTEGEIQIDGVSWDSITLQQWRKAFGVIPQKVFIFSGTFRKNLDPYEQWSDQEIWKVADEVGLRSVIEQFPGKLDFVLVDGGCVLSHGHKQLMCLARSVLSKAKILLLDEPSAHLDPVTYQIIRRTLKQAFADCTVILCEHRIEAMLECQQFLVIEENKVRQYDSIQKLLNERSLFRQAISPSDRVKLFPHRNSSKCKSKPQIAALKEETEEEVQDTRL
Summary of the method: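 EC50 derived by logistic regression of triplicate surface-HRP luminescence, plate-normalized to the lowest-concentration median. Doxycycline (500 ng/mL, 48 h) induced delF508-CFTR-HRP in CFBE41o- cells; compounds then applied 24 h at 37° C, 10 μM top, 3-fold over 10 points.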

[2] = molecular target: T2, delF508-CFTR (Homo sapiens, UniProt P13569, DEL508-508); experiment: delF508-CFTR functional activity in primary human bronchial epithelial cells (HBECs), Multi-Transepithelial Clamp Circuit (MTECC-24) assay, equivalent short circuit current; assay type: cell-based; conditions: primary CF HBECs; for MTECC24 CFHBEC-Amax %: relative to reference combination 2 μM 3-(6-(1-(2,2-difluorobenzo[d][1,3]dioxol-5-yl)cyclopropane-1-carboxamido)-3-methylpyridin-2-yl)benzoic acid (24 h) + 0.5 μM N-(2,4-di-tert-butyl-5-hydroxyphenyl)-4-oxo-1,4-dihydroquinoline-3-carboxamide; for EC50: test compound added 24 h before assay, potentiator (S)-3-amino-6-methoxy-N-(3,3,3-trifluoro-2-hydroxy-2-methylpropyl)-5-(trifluoromethyl)picolinamide present at assay, mean of at least two replicates, read-out: MTECC24 CFHBEC-EC50
T2 construct: functional activity of the CFTR channel (Chloride ion transport) in patient derived primary human bronchial epithelial cells; host or cells: patient-derived primary human bronchial epithelial cells (HBECs), delF508-CFTR
T2 sequence (P13569 with tags, fused parts or gaps DEL508-508): as above
Summary of the method: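 Compound acted as corrector on differentiated primary delF508-CFTR bronchial cultures, first 24 h basolaterally, then 45 min both sides before reading. Equivalent short circuit current was recorded during sequential forskolin and potentiator addition. EC50 came from 10-point, 1-in-3 dilution curves against the 0.1% DMSO baseline.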

SMILES	Emax [1]	EC50 [1]	MTECC24 CFHBEC-Amax % [2]	EC50 [2]	DelF508-CFTR-HRP Amax % [1]
Cc1ccc(C2(C(F)(F)F)CC2)c(OC2(C(=O)NS(=O)(=O)c3cccc(N4CC(C)(O)C4)n3)CC2)c1 [Example 4-17, N-((6-(3-Hydroxy-3-methylazetidin-1-yl)pyridin-2-yl)sulfonyl)-1-(5-methyl-2-(1-(trifluoromethyl)cyclopropy)phenoxy)cyclopropane-1-carboxamide]	156%	4030 nM	55%	76 nM	–
O=C(NS(=O)(=O)c1cccc(N2CC[C@H](O)C2)n1)C1(Oc2cc(Cl)ccc2NC2CCC(C(F)(F)F)CC2)CC1 (stereo partly drawn) [Example 9-19, (S)-1-(5-Chloro-2-((4-(trifluoromethyl)cyclohexyl)amino)phenoxy)-N-((6-(3-hydroxypyrrolidin-1-yl)pyridin-2-yl)sulfonyl)cyclopropanecarboxamide]	594%	2420 nM	161.2%	749 nM	–
Cc1ccc(C2CCCCC2)c(OC2(C(=O)NS(=O)(=O)c3cccc(N4CC5(CCN5)C4)n3)CC2)c1 [Example 2-21, N-((6-(1,6-Diazaspiro[3.3]heptan-6-yl)pyridin-2-yl)sulfonyl)-1-(2-cyclohexyl-5-methylphenoxy)cyclopropanecarboxamide]	252%	3390 nM	99%	93 nM	–
CC(C)(C)C1CCC(Oc2ccc(Cl)cc2OC2(C(=O)NS(=O)(=O)c3cccc(N4CC[C@H](O)C4)n3)CC2)CC1 (stereo partly drawn) [Example 6-7, (S)-1-(2-((4-(tert-butyl)cyclohexyl)oxy)-5-chlorophenoxy)-N-((6-(3-hydroxypyrrolidin-1-yl)pyridin-2-yl)sulfonyl)cyclopropanecarboxamide]	446%	760 nM	203.9%	116 nM	–
Cc1ccc(C2CCCCC2)c(OC2(C(=O)NS(=O)(=O)c3cccc(N4CCC5(CCCC5N)CC4)n3)CC2)c1 (single isomer, unassigned) [Example 2-32-1, N-((6-(1-Amino-8-azaspiro[4.5]decan-8-yl)pyridin-2-yl)sulfonyl)-1-(2-cyclohexyl-5-methylphenoxy)cyclopropanecarboxamide]	–	3350 nM	78%	12 nM	537%
O=C(NS(=O)(=O)c1cccc(N2CC[C@H](O)C2)n1)C1(Oc2cc(Cl)ccc2C2CC3(CCC3)C2)CC1 [Example 7-3, (S)-1-(5-chloro-2-(spiro[3.3]heptan-2-yl)phenoxy)-N-((6-(3-hydroxypyrrolidin-1-yl)pyridin-2-yl)sulfonyl)cyclopropanecarboxamide]	794%	1020 nM	135.1%	132 nM	–
Cc1ccc(C2CCCCC2)c(OC2(C(=O)NS(=O)(=O)c3cccc(N4CCC5(CC4)CC(=O)c4cc(F)ccc4O5)n3)CC2)c1 [Example 2-28, 1-(2-Cyclohexyl-5-methylphenoxy)-N-((6-(6-fluoro-4-oxospiro[chroman-2,4′-piperidin]-1′-yl)pyridin-2-yl)sulfonyl)cyclopropanecarboxamide]	429%	530 nM	83%	49 nM	–
CC1(C)CCN(c2ccc(Cl)cc2OC2(C(=O)NS(=O)(=O)c3cccc(N4CCC(C)(O)CC4)n3)CC2)CC1 [Example 9-42, 1-(5-Chloro-2-(4,4-dimethylpiperidin-1-yl)phenoxy)-N-((6-(4-hydroxy-4-methylpiperidin-1-yl)pyridin-2-yl)sulfonyl)cyclopropane-1-carboxamide]	588%	1350 nM	93.9%	138 nM	–
O=C(NS(=O)(=O)c1cccc(N2CC[C@H](O)C2)n1)C1(Oc2cc(C(F)(F)F)ccc2-c2cccc(C(F)(F)F)c2)CC1 [Example 5-5, (S)-1-((3′,4-Bis(trifluoromethyl)-[1,1′-biphenyl]-2-yl)oxy)-N-((6-(3-hydroxypyrrolidin-1-yl)pyridin-2-yl)sulfonyl)cyclopropane-1-carboxamide]	242%	2050 nM	94%	71 nM	–
Cc1ccc(C2CCCCC2)c(OC2(C(=O)NS(=O)(=O)c3cccc(N4C[C@@H]5C[C@@H]5[C@H](N)C4)n3)CC2)c1 (relative stereo) [Example 2-44, N-((6-(5-cis-amino-3-azabicyclo[4.1.0]heptan-3-yl)pyridin-2-yl)sulfonyl)-1-(2-cyclohexyl-5-methylphenoxy)cyclopropane-1-carboxamide]	120%	3980 nM	66%	256 nM	–
Cc1ccc(CC(C)C)c(OC2(C(=O)NS(=O)(=O)c3cccc(NC[C@@H](C)O)n3)CC2)c1 [Example 4-10, (R)-N-((6-((2-Hydroxypropyl)amino)pyridin-2-yl)sulfonyl)-1-(2-isobutyl-5-methylphenoxy)cyclopropane-1-carboxamide]	374%	3280 nM	71%	12 nM	–
Cc1ccc(C2CCCCC2)c(OC2(C(=O)NS(=O)(=O)c3cccc(N4CCCC(NC(=O)OC(C)(C)C)C4)n3)CC2)c1 (stereo not drawn) [Example 2-12, Tert-butyl (1-(6-(N-(1-(2-cyclohexyl-5-methylphenoxy)cyclopropanecarbonyl)sulfamoyl)pyridin-2-yl)piperidin-3-yl)carbamate]	604%	1530 nM	78%	8 nM	–
Cc1ccc(C2(C)CC2)c(OC2(C(=O)NS(=O)(=O)c3cccc(NC[C@H](C)O)n3)CC2)c1 [Example 4-16, (S)-N-((6-((2-Hydroxypropyl)amino)pyridin-2-yl)sulfonyl)-1-(5-methyl-2-(1-methylcyclopropyl)phenoxy)cyclopropane-1-carboxamide]	113%	3460 nM	48%	9 nM	–
Cc1ccc(OC2CCC3CCCCC3C2)c(OC2(C(=O)NS(=O)(=O)c3cccc(N4CC[C@H](O)C4)n3)CC2)c1 (stereo partly drawn) [Example 6-9, 1-(2-((decahydronaphthalen-2-yl)oxy)-5-methylphenoxy)-N-((6-((S)-3-hydroxypyrrolidin-1-yl)pyridin-2-yl)sulfonyl)cyclopropanecarboxamide]	382%	1280 nM	107.4%	289 nM	–
COC1CN(c2cccc(S(=O)(=O)NC(=O)C3(Oc4cc(C)ccc4C4CCCCC4)CC3)n2)C1 [Example 2-18, 1-(2-Cyclohexyl-5-methylphenoxy)-N-((6-(3-methoxyazetidin-1-yl)pyridin-2-yl)sulfonyl)cyclopropanecarboxamide]	597%	1580 nM	91%	21 nM	–
O=C(NS(=O)(=O)c1cccc(N2CC[C@H](O)C2)n1)C1(Oc2cc(Cl)ccc2N2CCC3(CCCC3)CC2)CC1 [Example 9-13, (S)-1-(5-Chloro-2-(8-azaspiro[4.5]decan-8-yl)phenoxy)-N-((6-(3-hydroxypyrrolidin-1-yl)pyridin-2-yl)sulfonyl)cyclopropanecarboxamide]	638%	1040 nM	128.4%	171 nM	–
Cc1ccc(C)c(OC2(C(=O)NS(=O)(=O)c3cccc(N4CCOC[C@@H]4C)n3)CC2)c1 [Example 4-2, (S)-1-(2,5-Dimethylphenoxy)-N-((6-(3-methylmorpholino)pyridin-2-yl)sulfonyl)cyclopropane-1-carboxamide]	134%	4670 nM	34%	568 nM	–
Cc1ccc(C2CC2)c(OC2(C(=O)NS(=O)(=O)c3cccc(NC[C@H](C)O)n3)CC2)c1 [Example 4-14, (S)-1-(2-Cyclopropyl-5-methylphenoxy)-N-((6-((2-hydroxypropyl)amino)pyridin-2-yl)sulfonyl)cyclopropane-1-carboxamide]	119%	3650 nM	57%	109 nM	–
Cc1ccc(C2CCC(F)(F)CC2)c(OC2(C(=O)NS(=O)(=O)c3cccc(N[C@H](C)CO)n3)CC2)c1 [Example 3-5]	363%	3970 nM	64%	52 nM	–
Cc1ccc(C2CCCCC2)c(OC2(C(=O)NS(=O)(=O)c3cccc(N4CCC(C(=O)OC5CCCC5)CC4)n3)CC2)c1 [Example 2-7]	389%	730 nM	63%	16 nM	–
Cc1ccc(C2CCC3(CCC3)OC2)c(OC2(C(=O)NS(=O)(=O)c3cccc(N4CCC(C)(O)CC4)n3)CC2)c1 (single isomer, unassigned) [Example 11-4-1, N-((6-(4-hydroxy-4-methylpiperidin-1-yl)pyridin-2-yl)sulfonyl)-1-(5-methyl-2-(5-oxaspiro[3.5]nonan-7-yl)phenoxy)cyclopropane-1-carboxamide]	–	2260 nM	60.8%	1080 nM	460.1%
